This passage reports EC50 results from patent US8710055B2, “Triazolylphenyl sulfonamides as serine/threonine kinase inhibitors” (Boehringer Ingelheim International GmbH, priority 2010, dated 2014).

This experiment concerns SK-MEL-28 cells (B-RAF V600E mutated). The experiment in a line: Inhibition of the proliferation of cultivated human melanoma cells (SK-MEL-28), AlamarBlue. Format: cell-based. The note with it: 72 h incubation. On the procedure: Measurement of the Inhibition of the Proliferation of Cultivated Human Melanoma Cells (SK-MEL-28, B-RAF^[…] Mutated)
For measuring the proliferation of cultivated human tumour cells, cells of the melanoma cell line SK-MEL-28 [from American Type Culture Collection (ATCC)] are cultivated in MEM medium, supplemented with 10% foetal calf serum, 2% sodium bicarbonate, 1 mM sodium pyruvate, 1% non-essential amino acids (e.g. from Cambrex, # BE13-114E) and 2 mM glutamine. SK-MEL-28 cells are placed in 96-well flat bottomed dishes in a density of 2500 cells per well in supplemented MEM medium (see above) and incubated overnight in an incubator (at 37° C. and 5% CO2). The active substances are added to the cells in different concentrations, so that a concentration range of 50 μM to 3.2 nM is covered. If necessary the initial concentration of 50 μM is changed to 10 μM or 2 μM and further dilution is carried out accordingly (up to 0.6 nM or 0.12 nM). After an incubation period of a further 72 h 20 μL AlamarBlue reagent (Serotec Ltd., # BUF012B) are added to each well and the cells are incubated for a further 3-6 h. The colour change of the AlamarBlue reagent is determined in a fluorescence spectrophotometer (e.g. Gemini, Molecular Devices). EC50 values are calculated using a software program (GraphPadPrizm).
(The colour change of resazurin is a common sign of viable cells or microbes.)
For `CCCS(=O)(=O)Nc1ccc(F)c(-n2cc(-c3cncc(N4CCN(CC)CC4)c3)nn2)c1F` [Example I-1], it took 0.113 µM to reach a half-maximal effect (EC50).

Consider `CCCS(=O)(=O)Nc1ccc(F)c(-n2cc(-c3cncc(OC)c3)nn2)c1F` [Example I-2], for which a half-maximal response (EC50) required 0.216 µM.

On to `CCCS(=O)(=O)Nc1ccc(F)c(-n2cc(-c3cncc(N4CCN(CCOCC)CC4)c3)nn2)c1F` [Example I-3], for which the EC50 (commonly the concentration that produces a half-maximal response) was determined as 0.082 µM.

The compound `CCCS(=O)(=O)Nc1ccc(F)c(-n2cc(-c3cncc(C)c3)nn2)c1F` [Example I-4] yielded an EC50 of 0.535 µM.

In the case of `CCCS(=O)(=O)Nc1ccc(F)c(-n2cc(-c3ccc(N)nc3)nn2)c1F` [Example I-5], the EC50 amounted to 1.64 µM.

`CCCS(=O)(=O)Nc1ccc(F)c(-n2cc(-c3ccc(NC(C)=O)nc3)nn2)c1F` [Example I-6] registered an EC50 of 0.559 µM.

With `CCCS(=O)(=O)Nc1ccc(F)c(-n2cc(-c3cncc(Br)c3)nn2)c1F` [Example I-7], the EC50 was 0.279 µM.

`CCCS(=O)(=O)Nc1ccc(F)c(-n2cc(-c3cncc(N4CCC(N5CCOCC5)CC4)c3)nn2)c1F` [Example I-8]: the EC50 is 0.305 µM.

The compound `CCCS(=O)(=O)Nc1ccc(F)c(-n2cc(-c3cncc(N4CCN(C(C)(C)C)CC4)c3)nn2)c1F` [Example I-9] showed an EC50 of 0.132 µM. Against the preceding compound, the EC50 is about 2.3-fold lower.

For the compound `CCCS(=O)(=O)Nc1ccc(F)c(-n2cc(-c3cncc(N4CCN(CC5CC5)CC4)c3)nn2)c1F` [Example I-10], the EC50 was found to be 0.107 µM.

`CCCS(=O)(=O)Nc1ccc(F)c(-n2cc(-c3cncnc3)nn2)c1F` [Example I-11] registered an EC50 of 0.506 µM.

In the case of `CCCS(=O)(=O)Nc1ccc(F)c(-n2cc(-c3cncc(N4CCOCC4)c3)nn2)c1F` [Example I-12], the half-maximal effective concentration (EC50) came out at 0.201 µM.

`CCCS(=O)(=O)Nc1ccc(F)c(-n2cc(-c3cnc(NC4CCN(CCOC)CC4)nc3)nn2)c1F` [Example I-13] returned an EC50 of 1.02 µM.

For `CCCS(=O)(=O)Nc1ccc(F)c(-n2cc(-c3cnn(C)c3C)nn2)c1F` [Example I-14], the EC50 was found to be 1.72 µM. This EC50 is about 1.7-fold higher than that of the compound before.

For `CCCS(=O)(=O)Nc1ccc(F)c(-n2cc(-c3cccnc3)nn2)c1F` [Example I-15], the midpoint of the response, the EC50, lay at 1.82 µM.

`CCCS(=O)(=O)Nc1ccc(F)c(-n2cc(-c3cncc(N4CCN(CCOC(C)C)CC4)c3)nn2)c1F` [Example I-16] returned an EC50 of 0.087 µM.

`CCCS(=O)(=O)Nc1ccc(F)c(-n2cc(-c3cncc(F)c3)nn2)c1F` [Example I-17] returned an EC50 of 1.26 µM.

As for `CCCS(=O)(=O)Nc1ccc(F)c(-n2cc(-c3cncc(N4CCN(C5CC5)CC4)c3)nn2)c1F` [Example I-18], the EC50 amounted to 0.075 µM. This EC50 lies about 17-fold lower than the previous one.

The compound `COc1cncc(-c2cn(-c3c(F)ccc(NS(=O)(=O)C(C)C)c3F)nn2)c1` [Example I-19] yielded an EC50 of 0.493 µM. Compared with the last compound, the EC50 is about 6.6-fold higher.

Turning to `CC(C)S(=O)(=O)Nc1ccc(F)c(-n2cc(-c3cncc(N4CCN(C(C)(C)C)CC4)c3)nn2)c1F` [Example I-20], it took 0.245 µM to reach a half-maximal effect (EC50).

The compound `CC(C)N1CCN(c2cncc(-c3cn(-c4c(F)ccc(NS(=O)(=O)C(C)C)c4F)nn3)c2)CC1` [Example I-21] showed an EC50 of 0.314 µM.

`CC(C)S(=O)(=O)Nc1ccc(F)c(-n2cc(-c3cncc(N4CCN(CC5CC5)CC4)c3)nn2)c1F` [Example I-22] returned an EC50 of 0.231 µM. This EC50 and that of the compound before are within 1.5-fold of each other.

In the case of `CC(C)S(=O)(=O)Nc1ccc(F)c(-n2cc(-c3cncc(N4CCN(C)CC4)c3)nn2)c1F` [Example I-23], the concentration giving a half-maximal response (EC50) is 0.459 µM.

The compound `CC(C)CS(=O)(=O)Nc1ccc(F)c(-n2cc(-c3cncc(N4CCN(C)CC4)c3)nn2)c1F` [Example I-24] came in with an EC50 of 0.117 µM.

For the compound `COc1cncc(-c2cn(-c3c(F)ccc(NS(=O)(=O)CC(C)C)c3F)nn2)c1` [Example I-25], a half-maximal response (EC50) required 0.158 µM.

`CC(C)CS(=O)(=O)Nc1ccc(F)c(-n2cc(-c3cncc(N4CCN(C(C)C)CC4)c3)nn2)c1F` [Example I-26] showed an EC50 of 0.098 µM.

Compound `CC(C)CS(=O)(=O)Nc1ccc(F)c(-n2cc(-c3cncc(N4CCN(C(C)(C)C)CC4)c3)nn2)c1F` [Example I-27] yielded an EC50 of 0.096 µM.
